Structures can show the parent of a compound that is named as a salt. Where two headings read alike, the source gives them in different places.
Legend:
[1] = target: serotonin 5-HT2C receptor (isoform type VSV, stably expressing CHO cell) (Homo sapiens, UniProt P28335, I156V/I160V/N158S); assay: cell-based; conditions: for Emax: CHO, read-out: ratio relative to maximum response by 5-HT (1 μM); for ratio relative to maximum response by 5-HT (1 μM): hydrochloride
[2] = system: spinal cord-transected female rats under urethane anesthesia; conditions: before vs after administration
Procedure: SD female rats (body weight 180-350 g) were anesthetized with urethane (Wako Pure Chemical Industries, Ltd.), and the spinal cord was cut at T8-9 level to eliminate the micturition reflex. During the operation, halothane (Takeda Pharmaceutical Company Limited) anesthesia was added as necessary. The rats were fixed at a dorsal position, and two catheters (PE-100; Clay Adams) were indwelled in the bladder. One of the catheters was filled with saline stained with Evans Blue dye (Merck), and connected to a 50 ml syringe (TERUMO CORPORATION) fixed on an infusion pump (KD Scientific) via a three-way cock. The other catheter was connected to a pressure transducer (DX-100; NIHON KOHDEN CORPORATION), and signals of the transducer were transmitted to computer via an amplifier (blood pressure amplification unit AP-641G; NIHON KOHDEN CORPORATION) and a data analyzer (BIOPAC; MP100), and recorded on a hard disk. The data was analyzed on the computer using a software (BIOPAC; AcqKnowledge). Saline was injected into the bladder using the infusion pump at a rate of 360 ml/hr, infusion was stopped on the moment fluid leakage from the urethral meatus was observed, and the solution in the bladder was discharged by opening the three-way cock. The maximum intravesical pressure during infusion was taken as a leak point pressure.

[3] = system: spinal cord transected female rats whose hypogastric nerve and pudendal nerves were bilaterally cut; assay: urethral closure response induced by increased intravesical pressure (Experimental Example 5); conditions: for urethral closure response (cmH2O) after drug administration: i.v., 10 min after administration; for urethral closure response (cmH2O) after drug administration / urethral closure response (cmH2O) before drug administration: mean ± SEM, n=5; for urethral closure response (cmH2O) before drug administration: i.v. group; for effect on urethral closure response induced by increased intravesical pressure (in words): intravenous administration
Procedure: Female SD rats (body weight 200-310 g) were anesthetized with urethane (Wako Pure Chemical Industries, Ltd.), and the spinal cord was transected at T8-9 level to eliminate the micturition reflex. During the operation, halothane (Takeda Pharmaceutical Company Limited) anesthesia was added when necessary. After abdominal section, bladder neck was ligated with a suture thread, and then the hypogastric nerve and pudendal nerve were bilaterally transected. A catheter (PE-90, Clay Adams) was placed in the bladder, and the other end of the bladder catheter was connected to a pressure transducer and a water reservoir (60 ml syringe) of saline via a three-way cock. A microtip transducer catheter (SPR-524, Millar Instruments Inc.) was inserted toward the bladder from the urethral orifice, and adjusted using a scale on the catheter surface so that the transducer part is positioned in the urethra at 10.0-15.0 mm from the urethral orifice.
The changes in the topical pressure within the urinary tract (hereinafter conveniently indicated as urethral pressure) as measured by the microtip transducer was transmitted to a computer via an amplifier (blood pressure amplification unit AP-641G; NIHON KOHDEN) and a data analyzer (MP-100; biopack; sampled at 500 Hz), and recorded on a hard disc. […] The reaction of the urinary tract induced by an increased intravesical pressure was measured 3 times, and the average of the last 2 measures was taken as the value before drug administration. The evaluation item was reflex urethral closure response, and the recorded values were subjected to smoothing process at 500 points to calculate an average urethral pressure per 1 sec, after which the value immediately before increase in the intravesical pressure was subtracted from the maximum value on increase in the intravesical pressure and taken as the urethral closure response. […] The drugs were all dissolved in N,N-dimethylformamide/polyethylene glycol 400 (1:1) and administered intravenously at a volume of 0.5 ml/kg.

[4] = system: spinal cord-transected female rats under urethane anesthesia; assay: leak point pressure by high speed infusion method, serotonin 5-HT2C receptor agonists (Experimental Example 3); conditions: for change of leak point pressure (cmH2O): i.v., mean ± SEM; for effect on leak point pressure (in words): intravenous administration
Procedure: SD female rats (body weight 180-350 g) were anesthetized with urethane (Wako Pure Chemical Industries, Ltd.), and the spinal cord was cut at T8-9 level to eliminate the micturition reflex. During the operation, halothane (Takeda Pharmaceutical Company Limited) anesthesia was added as necessary. The rats were fixed at a dorsal position, and two catheters (PE-100; Clay Adams) were indwelled in the bladder. One of the catheters was filled with saline stained with Evans Blue dye (Merck), and connected to a 50 ml syringe (TERUMO CORPORATION) fixed on an infusion pump (KD Scientific) via a three-way cock. The other catheter was connected to a pressure transducer (DX-100; NIHON KOHDEN CORPORATION), and signals of the transducer were transmitted to computer via an amplifier (blood pressure amplification unit AP-641G; NIHON KOHDEN CORPORATION) and a data analyzer (BIOPAC; MP100), and recorded on a hard disk. The data was analyzed on the computer using a software (BIOPAC; AcqKnowledge). Saline was injected into the bladder using the infusion pump at a rate of 360 ml/hr, infusion was stopped on the moment fluid leakage from the urethral meatus was observed, and the solution in the bladder was discharged by opening the three-way cock. The maximum intravesical pressure during infusion was taken as a leak point pressure, which was measured repeatedly until the value was stabilized, and the average value of the last three measures was taken as the data. […] All the drugs were dissolved in DMA/PEG400 (1:1) and intravenously administered at 0.5 ml/kg.

Sequence of serotonin 5-HT2C receptor (isoform type VSV, stably expressing CHO cell) (P28335 33-458 I156V/N158S/I160V limits assumed): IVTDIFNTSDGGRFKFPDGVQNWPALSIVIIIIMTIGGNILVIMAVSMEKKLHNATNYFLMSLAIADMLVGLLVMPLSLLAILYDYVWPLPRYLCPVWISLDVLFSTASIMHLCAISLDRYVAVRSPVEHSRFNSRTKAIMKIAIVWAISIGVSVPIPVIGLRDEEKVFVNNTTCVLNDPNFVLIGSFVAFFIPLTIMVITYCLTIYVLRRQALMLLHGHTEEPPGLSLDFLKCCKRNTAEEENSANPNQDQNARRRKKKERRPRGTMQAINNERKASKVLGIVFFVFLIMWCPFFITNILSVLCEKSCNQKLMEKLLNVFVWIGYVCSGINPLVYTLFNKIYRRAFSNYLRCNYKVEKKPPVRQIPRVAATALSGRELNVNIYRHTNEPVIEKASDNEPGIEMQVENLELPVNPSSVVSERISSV

Compound: CC1CNCc2ccc(N3CCOC[C@H]3C)nc21 (stereo in doubt) [Example 75, (8R*)-8-Methyl-2-[(3R)-3-methylmorpholin-4-yl]-5,6,7,8-tetrahydro-1,6-naphthyridine hydrochloride]
- Emax [1]: 103%

Compound: CC(C)N(C)c1ccc2c(n1)CCNC2 [Example 17, N-Isopropyl-N-methyl-5,6,7,8-tetrahydro-1,6-naphthyridin-2-amine hydrochloride]
- Emax [1]: 100%

Compound: CSc1ccc(-c2ccc3c(n2)CCNC3)cc1 [Example 28, 2-[4-(Methylthio)phenyl]-5,6,7,8-tetrahydro-1,6-naphthyridine dihydrochloride]
- Emax [1]: 102%

Compound: C[C@@H]1COCCN1c1ccc2c(n1)CCNC2 [Example 7, 2-[(3R)-3-Methylmorpholin-4-yl]-5,6,7,8-tetrahydro-1,6-naphthyridine hydrochloride]
- Emax [1]: 95.6%

Compound: CC(C)c1ccc2c(n1)CCNC2 [Example 24, 2-Isopropyl-5,6,7,8-tetrahydro-1,6-naphthyridine hydrochloride]
- Emax [1]: 101%

Compound: CC(C)Oc1ccc2c(n1)CCNC2 [Example 30, 2-Isopropoxy-5,6,7,8-tetrahydro-1,6-naphthyridine hydrochloride]
- Emax [1]: 97.8%

Compound: CNCC[C@H](Oc1cccc2ccccc12)c1cccs1 [duloxetine]
- change of leak point pressure (cmH2O) ([2]; 1 mg/kg, i.v., mean ± SEM, n=5): 11.4 ± 2.4 cmH2O
- effect on leak point pressure (in words) ([2]; intravenous administration): significantly increased the leak point pressure

Compound: c1cc2c3c(c1)[C@H]1CCC[C@H]1N3CCNC2 [WAY-163909]
- urethral closure response (cmH2O) after drug administration ([3]; 3 mg/kg): 10.2 ± 1.6 cmH2O
- urethral closure response (cmH2O) before drug administration ([3]; baseline of the 3 mg/kg): 4.4 ± 0.8 cmH2O
- effect on urethral closure response induced by increased intravesical pressure (in words) [3]: enhanced the urethral closure response
- change of leak point pressure (cmH2O) ([4]; 0.1 mg/kg): 4.4 ± 1.6 cmH2O
- change of leak point pressure (cmH2O) ([4]; 1 mg/kg): 12.9 ± 4.2 cmH2O
- change of leak point pressure (cmH2O) ([4]; 3 mg/kg): 30.1 ± 2.6 cmH2O
- effect on leak point pressure (in words) [4]: increased the leak point pressure in a dose-dependent manner

Compound: c1cc2c(nc1N1CCOCC1)CCNC2 [Example 6, 2-Morpholin-4-yl-5,6,7,8-tetrahydro-1,6-naphthyridine]
- Emax [1]: 100%

Compound: CCN(C)c1ccc2c(n1)CCNC2 [Example 15, N-Ethyl-N-methyl-5,6,7,8-tetrahydro-1,6-naphthyridin-2-amine hydrochloride]
- Emax [1]: 102%

Compound: CC1CNCc2ccc(N3CCOCC3)nc21 (centres unmarked) [Example 5, 8-Methyl-2-morpholin-4-yl-5,6,7,8-tetrahydro-1,6-naphthyridine dihydrochloride]
- Emax [1]: 101%

Compound: CC1CNCc2ccc(N3CCOC[C@H]3C)nc21 (stereo in doubt) [Example 76, (8S*)-8-Methyl-2-[(3R)-3-methylmorpholin-4-yl]-5,6,7,8-tetrahydro-1,6-naphthyridine hydrochloride]
- ratio relative to maximum response by 5-HT (1 μM) [1]: 105

Compound: CC1CCNCc2ccc(N3CCOCC3)nc21 (centres unmarked) [Example 2, 9-Methyl-2-morpholin-4-yl-6,7,8,9-tetrahydro-5H-pyrido[3,2-c]azepine hydrochloride]
- Emax [1]: 92.8%

Compound: CC1CNCc2ccc(N(C)C(C)C)nc21 (single isomer, unassigned) [Example 79, (8R*)-N-Isopropyl-N,8-dimethyl-5,6,7,8-tetrahydro-1,6-naphthyridin-2-amine hydrochloride]
- Emax [1]: 106%

Compound: Fc1ccc(-c2ccc3c(n2)CCNC3)cc1 [Example 27, 2-(4-Fluorophenyl)-5,6,7,8-tetrahydro-1,6-naphthyridine dihydrochloride]
- Emax [1]: 91.7%

Compound: c1cc(-c2ccc3c(n2)CCNC3)co1 [Example 26, 2-(3-Furyl)-5,6,7,8-tetrahydro-1,6-naphthyridine dihydrochloride]
- Emax [1]: 98.2%

Compound: O=C1Nc2cc(Cl)c(Cl)cc2N2CCNCC12 (centres unmarked) [WAY-161503]
- change of leak point pressure (cmH2O) ([4]; 0.03 mg/kg): 7.4 ± 3.8 cmH2O
- change of leak point pressure (cmH2O) ([4]; 0.3 mg/kg): 12.8 ± 1.0 cmH2O
- effect on leak point pressure (in words) [4]: increased the leak point pressure in a dose-dependent manner

Compound: CC1CNCc2ccc(-c3ccc(F)cc3)nc21 (centres unmarked) [Example 4, 2-(4-Fluorophenyl)-8-methyl-5,6,7,8-tetrahydro-1,6-naphthyridine hydrochloride]
- Emax [1]: 101%

Compound: CC1CNCc2ccc(N3CCOCC3)nc21 (single isomer, unassigned) [Example 74, (8S*)-8-Methyl-2-morpholin-4-yl-5,6,7,8-tetrahydro-1,6-naphthyridine hydrochloride]
- ratio relative to maximum response by 5-HT (1 μM) [1]: 103

Compound: c1cc2c(nc1C1CC1)CCNC2 [Example 43, 2-Cyclopropyl-5,6,7,8-tetrahydro-1,6-naphthyridine hydrochloride]
- Emax [1]: 97%

Compound: C[C@H]1COCCN1c1ccc2c(n1)CCNC2 [Example 8, 2-[(3S)-3-Methylmorpholin-4-yl]-5,6,7,8-tetrahydro-1,6-naphthyridine hydrochloride]
- Emax [1]: 90.8%

Compound: C[C@H]1CNCCc2ccc(Cl)cc21 [APD-356]
- urethral closure response (cmH2O) after drug administration ([3]; 1 mg/kg): 8.6 ± 2.7 cmH2O
- urethral closure response (cmH2O) before drug administration ([3]; baseline of the 1 mg/kg): 5.3 ± 1.7 cmH2O
- effect on urethral closure response induced by increased intravesical pressure (in words) [3]: enhanced the urethral closure response
- change of leak point pressure (cmH2O) ([4]; 0.1 mg/kg): 5.2 ± 2.6 cmH2O
- change of leak point pressure (cmH2O) ([4]; 1 mg/kg): 19.2 ± 3.1 cmH2O
- change of leak point pressure (cmH2O) ([4]; 3 mg/kg): 28.9 ± 3.3 cmH2O
- effect on leak point pressure (in words) [4]: increased the leak point pressure in a dose-dependent manner

Compound: CC1CNCc2ccc(N3CCOCC3)nc21 (single isomer, unassigned) [Example 73, (8R*)-8-Methyl-2-morpholin-4-yl-5,6,7,8-tetrahydro-1,6-naphthyridine hydrochloride]
- Emax [1]: 101%

Compound: CC1CNCc2ccc(N3CCOC[C@H]3C)nc21 (stereo partly drawn) [Example 48, 8-Methyl-2-[(3R)-3-methylmorpholin-4-yl]-5,6,7,8-tetrahydro-1,6-naphthyridine hydrochloride]
- Emax [1]: 95.5%

Compound: CC1CNCc2ccc(N(C)C(C)C)nc21 (single isomer, unassigned) [Example 80, (8S*)-N-Isopropyl-N,8-dimethyl-5,6,7,8-tetrahydro-1,6-naphthyridin-2-amine hydrochloride]
- ratio relative to maximum response by 5-HT (1 μM) [1]: 102

Compound: FC(F)(F)c1ccc(-c2ccc3c(n2)CCNC3)cc1 [Example 29, 2-[4-(Trifluoromethyl)phenyl]-5,6,7,8-tetrahydro-1,6-naphthyridine dihydrochloride]
- Emax [1]: 97%

Compound: CC(Oc1ccc2c(n1)CCNC2)C1CC1 (centres unmarked) [Example 31, 2-(1-Cyclopropylethoxy)-5,6,7,8-tetrahydro-1,6-naphthyridine hydrochloride]
- Emax [1]: 88.4%

Compound: CC1CNCc2ccc(N(C)C(C)C)nc21 (centres unmarked) [Example 53, N-Isopropyl-N,8-dimethyl-5,6,7,8-tetrahydro-1,6-naphthyridin-2-amine hydrochloride]
- Emax [1]: 91%

Compound: c1cc2c(nc1N1CCOCC1)OCCNC2 [compound A, 8-morpholin-4-yl-2,3,4,5-tetrahydropyrido[3,2-f][1,4]oxazepine]
- urethral closure response (cmH2O) after drug administration ([3]; 1 mg/kg): 7.5 ± 1.6 cmH2O
- urethral closure response (cmH2O) before drug administration ([3]; baseline of the 1 mg/kg): 4.6 ± 0.8 cmH2O
- effect on urethral closure response induced by increased intravesical pressure (in words) [3]: enhanced the urethral closure response
- change of leak point pressure (cmH2O) ([4]; 0.1 mg/kg): 8.4 ± 5.0 cmH2O
- change of leak point pressure (cmH2O) ([4]; 1 mg/kg): 10.3 ± 2.4 cmH2O
- change of leak point pressure (cmH2O) ([4]; 3 mg/kg): 25.7 ± 8.7 cmH2O
- effect on leak point pressure (in words) [4]: increased the leak point pressure in a dose-dependent manner

Reference: patent publication US20100266504A1, “CONDENSED PYRIDINE DERIVATIVE AND USE THEREOF” (priority 2007, published 2010)
